Tests used:
[1] = test system: COX-2; experiment: COX-2 mRNA expression in LPS-activated RAW 264.7 (RT-qPCR); assay type: cell-based, murine; settings: 10 and 100 nM, 1 h pretreatment before LPS, n = 3, p < 0.05
Method: (§1) Cell lines that reached 80% confluence within 48 h were selected for further gene expression study. […] The experiment was conducted in triplicate. After the cell lines were treated with the testing samples for one hour, 2 μg/mL LPS (lipopolysaccharide; Sigma-Aldrich, St. Louis, MO, USA) was added to the cell lines and then maintained in an incubator for another 24 h to induce the cell inflammatory process. […] Total RNA quality and quantity were examined by NanoDrop. An equivalent of 2000 ng total RNA from each sample was then reverse-transcribed to produce first-strand complementary DNA (cDNA) using a Tetro cDNA Synthesis Kit (Bioline USA Inc., Memphis, TN, USA), according to the manufacturer's instruction. Briefly, the total RNA template was mixed with 4 μ[…] buffer, 1 μL oligo dT(18), 1 μL dNTP mix […], 1 μL Rnase inhibitor, and 1 μL reverse transcriptase. Diethylpyrocarbonate (DEPC)-treated water was then added to a mixture to adjust the volume to a final 20-μl reaction. An incubation process to produce first strand cDNA was carried out in a thermal cycler (SensoQuest Labcycler). Primer annealing and strand extending occurred at 45 °C for 30 min and a reverse transcriptase was finally heat-inactivated at 85 °C for 5 min. The corresponding cDNA products were then used as a template in a quantitative polymerase chain reaction (qPCR) to study COX-2 and iNOS gene expressions, with GAPDH as a reference gene. The primer sequences for qPCR quantifications were as follows: COX-2: [NT] (reverse); iNOS: [NT] (reverse), and GAPDH: [NT] (reverse). […] Then, 20 μL qPCR reaction was prepared by mixing a 1-μL cDNA template with 0.8 μL forward primer […], 0.8 μL reverse primer […], 10 μL SYBR, and 7.4 μL DI water. Gene expression was measured in a 96-well plate using a BIO-RAD iCycler IQ^TM5 detection system. qPCR reaction was initially heated to 95 °C 10 min, and then underwent 40 cycles of 95 °C 15 s and 60 °C 1 min. […] Each corresponding expression was computed as a relative fold change using the 2^-delta delta Ct method, normalized to the GAPDH gene.

[2] = Antioxidant activity assay (DPPH); settings: for Antioxidant %Inhibition (±SEM): at a concentration of 400 µM, mean ± SEM, n = 3
Method: […] The reaction was a mixture of 70 µL of DPPH solution (500 µM in 80% methanol), 10 µL of 80% methanol, and 20 µL of test compound. The reaction was incubated at room temperature in the dark for 30 min. The absorbance was then measured at 517 nm using Infinite 200 Pro™ (Tecan). Ascorbic acid was used as a positive control.

[3] = target: T1, amyloid-β (1-42) peptide (Homo sapiens, UniProt P05067); experiment: Amyloid aggregation inhibition assay (ThT); assay type: biochemical; settings: for inhibition at 400 µM: at a concentration of 400 µM, ThT, 48 h
T1 construct: 9 µL of 25 μM working solution of amyloid-β (1-42) peptide; purchased Anaspec, Fremont, CA, USA
T1 sequence (P05067 672-713 limits assumed): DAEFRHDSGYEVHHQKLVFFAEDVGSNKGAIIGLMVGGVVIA
Method: The ascorbic derivatives ware evaluated for activities of amyloid β aggregation inhibition at a concentration of 400 µM. Briefly, in each well of transparent plate, 9 µL of 25 μM working solution of amyloid-β (1-42) peptide and 1 µL of test compound were gently mixed and then incubated in the dark at 37 °C for 48 h. After the incubation, 200 µL of 5 µM ThT (Sigma®, Saint Louis, MO, USA) in 50 mM Tris buffer (pH 7.4) was added to each well. Fluorescence was then measured at Ex = 446 nm and Em = 480 nm using a SpectraMax Gemini EM™, San Jose, CA, USA [26, 62]. Curcumin was used as a positive control, at a concentration of 100 µM.

[4] = target: T2, BACE1 (Homo sapiens, UniProt P56817); experiment: β-Secretase (BACE1) inhibition assay (FRET); assay type: biochemical; settings: for inhibition at 400 µM: at a concentration of 400 µM, mean ± SEM, n = 3
T2 construct: purchased Sino Biological, Beijing, China
T2 sequence (P56817 46-501): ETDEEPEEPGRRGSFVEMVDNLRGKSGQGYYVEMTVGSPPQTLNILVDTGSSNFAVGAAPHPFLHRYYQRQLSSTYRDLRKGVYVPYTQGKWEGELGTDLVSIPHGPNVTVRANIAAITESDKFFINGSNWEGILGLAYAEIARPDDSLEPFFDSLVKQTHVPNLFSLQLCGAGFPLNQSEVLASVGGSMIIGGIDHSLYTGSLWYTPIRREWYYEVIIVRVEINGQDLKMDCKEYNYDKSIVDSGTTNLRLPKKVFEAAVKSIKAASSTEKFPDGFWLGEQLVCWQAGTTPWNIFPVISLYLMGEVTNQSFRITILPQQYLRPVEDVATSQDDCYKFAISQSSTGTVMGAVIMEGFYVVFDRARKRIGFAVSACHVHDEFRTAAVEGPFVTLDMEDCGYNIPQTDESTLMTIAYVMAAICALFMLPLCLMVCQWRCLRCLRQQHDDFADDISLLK
Method: All ascorbic derivatives (2a–2c and 5a–5c), at a concentration of 400 µM, were evaluated for β-secretase inhibitory activities by using the FRET assay. Briefly, the reaction composing 30 µL of 0.01 unit/µL BACE1 enzyme stock solution, 20 µL of 5% DMSO of test compound, 30 µL of sodium acetate buffer (pH 4.5), and 20 µL of 125 µM β-secretase substrate IV (Calbiochem®, San Diego, CA, USA) was incubated at 37 °C for 30 min. Fluorescence was then measured at Ex = 380 nm and Em = 510 nm using a SpectraMax Gemini EM™, San Jose, CA, USA [26, 61]. β-secretase inhibitor I (Anaspec®, Fremont, CA, USA) was used as a positive control, at a concentration of 100 µM. The experiments were performed in triplicate. For the compounds exerting inhibitory activities more than 20%, an IC50 value was further determined.

[5] = test system: iNOS; experiment: iNOS mRNA expression in LPS-activated RAW 264.7 (RT-qPCR); assay type: cell-based, murine; settings: 10 and 100 nM, 1 h pretreatment before LPS, n = 3, p < 0.05
Method: as §1

[6] = test system: P19-derived neurons; experiment: Viability assay (XTT) on P19-derived neurons; assay type: cell-based; settings: 18 h, nontoxic condition, versus 0.5% DMSO, derivatives at 1 nM
Method: (§2) P19 cells were grown in alpha minimal essential medium (α-MEM) supplemented with 7.5% newborn calf serum (NCS), 2.5% fetal bovine serum (FBS), and 1% antibiotics–antimycotic solution in a 5% CO2 humidified atmosphere at 37 °C. Cells in monolayer cultures were maintained in exponential growth by subculturing every two days.
(§3) Exponentially grown cultures were trypsinized and dissociated into single cells. P19 cells (2 × 10^6 cells/mL) were then suspended in 10 mL α-MEM supplemented with 5% FBS, 1% antibiotics–antimycotic solution, and 0.5 µM all transretinoic acid (RA) and seeded onto a 100-mm bacteriological culture dish. The cells formed large aggregates in suspension. After four days of RA treatment, the aggregates were dissociated by 5-mL glass measuring pipette and replated on poly-L-lysine-precoated multiwell plates (the multiwell plates were coated with 50 µg/mL poly-L-lysine, dissolved in PBS overnight, and sterilized under UV light for 30 min) at 7 × 10^4 cells/mL (150 µL/well in 96-well plate) in α-MEM supplemented with 10% FBS and 1% antibiotics–antimycotic solution and incubated for 24 h. Cytosine-1-β-D-arabinoside or Ara-C (10 µM) was added at day 1 after plating, and the medium was changed every two to three days. The differentiated neuronal cells, P19-derived neurons, were used after day 14 of the differentiation process.
The assay was carried out on P19-derived neurons cultured in a 96-well plate. After 14 days of the differentiation process, the α-MEM, supplemented with 10% FBS, 10 μM Ara-C, and 1% antibiotics–antimycotic solution, was removed and DMSO solutions of the sample, diluted with α-MEM supplemented with 10% FBS and 1% antibiotics–antimycotic solution in the presence of 10 μM Ara-C, were added to produce the concentrations of 10,000, 1000, 100, 10, and 1 nM. A concentration of DMSO was added to the cultures at 0.5% v/v. […] The OD value was determined by using a microplate reader at 450 nm. Data were expressed as mean ± SEM (n = 3, each n was run in triplicate), with the medium as a control, representing 100% cell viability. […]

[7] = test system: P19-derived neurons; experiment: Neuroprotective assay, serum-deprivation-induced oxidative stress (XTT); assay type: cell-based; settings: 1 nM, p > 0.05
Method: as §2
as §3, with “Cytosine-1-β-D-arabinoside or Ara-C (10 µM) was added at day 1 after plating, and the medium was changed every two to three days. The differentiated neuronal cells, P19-derived neurons, were used after day 14 of the differentiation process.” left out
The assay was carried out with P19-derived neurons cultured in a 96-well plate by using the serum-deprivation method. […] Data were expressed as mean ± SEM (n = 3, each n was run in triplicate), with the medium as a control, representing 100% cell viability. […]

SMILES | IC50 [2] | IC50 [3] | inhibition at 400 µM ([3]; mean ± SEM, n = 3) | inhibition at 400 µM [4] | melting point | IC50 [4] | inhibition at 100 µM ([3]; positive control at 100 μM, mean ± SEM, n = 3) | expression of COX-2 gene compared to 0.001% DMSO control [1] | Antioxidant %Inhibition (±SEM) [2] | expression of iNOS gene compared to 0.001% DMSO control [5] | cytotoxicity / cell viability of P19-derived neurons [6] | neuroprotective activity compared with quercetin (positive control) [7]
O=C1O[C@H]([C@@H](O)CO)C(O)=C1O [Ascorbic acid, reference compound] | 21.3 µM | 146 µM | 63.4 ± 0.87% | 7.84 ± 1.75% | – | – | – | downregulate | 94.85 ± 0.62% | downregulate | decreased | –
O=C1O[C@H]([C@@H](O)COCc2cn(Cc3ccc(O)cc3)nn2)C(O)=C1O [Compound 2a, (R)-3,4-Dihydroxy-5-((S)-1-hydroxy-2-((1-(4-hydroxybenzyl)-1H-1,2,3-triazol-4-yl)metho-xy)ethyl)furan-2(5H)-one] | 206 µM | 319 µM | 53 ± 0.6% | 6.8 ± 2.69% | – | – | – | – | 66.54 ± 0.56 % | – | significantly higher viability than 0.5% DMSO | no statistical differences
COc1cc(Cn2cc(COC[C@H](O)[C@H]3OC(=O)C(O)=C3O)nn2)ccc1O [Compound 2b, (R)-3,4-Dihydroxy-5-((S)-1-hydroxy-2-((1-(4-hydroxy-3-methoxybenzyl)-1H-1,2,3-triazol-4-yl)methoxy)ethyl)furan-2(5H)-one] | 156 µM | 319 µM | 51 ± 2.12% | 6.29 ± 0.98% | – | – | – | – | 62.81 ± 2.62 % | – | – | no statistical differences
O=C1O[C@H]([C@@H](O)COCc2cn(CC3Cc4c([nH]c5ccccc45)CN3)nn2)C(O)=C1O (stereo partly drawn) [Compound 2c, (R)-3,4-Dihydroxy-5-((S)-1-hydroxy-2-((1-((2,3,4,9-tetrahydro-1H-pyrido[3,4-b]indol-3-yl)-methyl)-1H-1,2,3-triazol-4-yl)methoxy)ethyl)furan-2(5H)-one] | 72.3 µM | 92.3 µM | 71.8 ± 1.42% | 23.5 ± 1.66% | 172 to 174 °C | 726 µM | – | downregulate | 94.67 ± 0.50% | downregulate | – | –
COc1cc(/C=C/C(=O)CC(=O)/C=C/c2ccc(O)c(OC)c2)ccc1O [Curcumin, reference compound] | – | – | – | – | – | – | 94.5 ± 1.15% | – | – | – | – | –

Second part, led by results:

IC50 [2] | IC50 [3] | inhibition at 400 µM ([3]; mean ± SEM, n = 3) | inhibition at 400 µM [4] | melting point | IC50 [4] | inhibition at 100 µM ([3]; positive control at 100 μM, mean ± SEM, n = 3) | SMILES | expression of COX-2 gene compared to 0.001% DMSO control [1] | Antioxidant %Inhibition (±SEM) [2] | expression of iNOS gene compared to 0.001% DMSO control [5] | cytotoxicity / cell viability of P19-derived neurons [6] | neuroprotective activity compared with quercetin (positive control) [7]
91.2 µM | – | 34.5 ± 3.62% | – | – | – | – | O=C1O[C@H]([C@@H](O)CO)C(OCc2cn(Cc3ccc(O)cc3)nn2)=C1O [Compound 5a, (R)-5-((S)-1,2-Dihydroxyethyl)-3-hydroxy-4-((1-(4-hydroxybenzyl)-1H-1,2,3-triazol-4-yl)-methoxy)furan-2(5H)-one] | – | 78.42 ± 0.93 % | – | – | –
103 µM | – | 19.6 ± 1.83% | – | – | – | – | COc1cc(Cn2cc(COC3=C(O)C(=O)O[C@@H]3[C@@H](O)CO)nn2)ccc1O [Compound 5b, (R)-5-((S)-1,2-Dihydroxyethyl)-3-hydroxy-4-((1-(4-hydroxy-3-methoxybenzyl)-1H-1,2,3-triazol-4-yl)methoxy)furan-2(5H)-one] | – | 77.37 ± 1.60 % | – | – | –
62.9 µM | 136 µM | 68.26 ± 0.67% | 27.3 ± 1.41% | 144 to 146 °C | 593 µM | – | O=C1O[C@H]([C@@H](O)CO)C(OCc2cn(CC3Cc4c([nH]c5ccccc45)CN3)nn2)=C1O (stereo partly drawn) [Compound 5c, (R)-5-((S)-1,2-Dihydroxyethyl)-3-hydroxy-4-((1-((2,3,4,9-tetrahydro-1H-pyrido[3,4-b]indol-3-yl)methyl)-1H-1,2,3-triazol-4-yl)methoxy)furan-2(5H)-one] | downregulate | 85.84 ± 2.43% | downregulate | significantly higher viability than 0.5% DMSO | –

Source: paper PMC7999550, “Novel Multifunctional Ascorbic Triazole Derivatives for Amyloidogenic Pathway Inhibition, Anti-Inflammation, and Neuroprotection” (Molecules, 2021)
